# Measurements from patent US10064885B2, “Metabolic gene, enzyme, and flux targets for cancer therapy” (Massachusetts Institute of Technology, priority 2010, dated 2018).
# Assays:
# Format in all cases: cell-based, human
# [1] = tested on: A549 cells; experiment: Reductive glutamine metabolism by isotopic labeling and GC/MS in A549 cells expressing shRNAs; conditions: [U-13C5]glutamine, aspartate, malate, fumarate
# Method: (§1) Cell Culture, Isotopic Labeling, and Hypoxia. All cell lines were cultured in Dulbecco's Modified Eagle Medium (DMEM; Mediatech) containing 10% fetal bovine serum (FBS; Invitrogen) and 100 U/ml penicillin/streptomycin (P/S; Mediatech) unless otherwise mentioned. Cell lines were obtained from ATCC unless otherwise noted. The VC3 glioma cell line was provided by Tim Lautenschlaeger (Ohio State University), MDA-MB-231 and HCT116 cell lines were provided by Ferdinando Chiaradonna (University of Milano-Bicocca), MRC5 cells were provided by Stephen Lippard (MIT), SN12C, ACHN, and 786-O cells were provided by Kevin Courtney and Lew Cantley (Harvard Medical School), and MCF10A cells were provided by Joan Brugge (Harvard Medical School), and Huh7 cells were provided by Mike Hemann (MIT). MCF10A cells were cultured in custom DMEM/F12 (Hyclone) containing 5% horse serum, 20 ng/ml EGF, 10 μg/ml insulin, 100 ng/ml cholera toxin, 0.5 mg/ml hydrocortisone, 100 U/ml penicillin/streptomycin, and labeled/unlabeled glucose and glutamine at 18 mM and 2.5 mM, respectively. PRC3, WT8, pTV, and pTR cell lines were subcloned from the 786-O cell line as previously described (42, 43). For isotopic labeling experiments, cells were cultured in 6 well plates in glucose- and glutamine-free DMEM (Sigma) containing 10% dialyzed FBS (Invitrogen), 100 U/ml P/S, naturally labeled glucose or glutamine, and the appropriate tracer, including [U-^13C5]glutamine (Isotec), [5-^13C]glutamine (C/D/N Isotopes), [1-^13C]glutamine, [U-^13C6]glucose, [1,2-^13C2]glucose (all from Cambridge Isotope Labs). Steady state labeling of organic and amino acids was accomplished by culturing subconfluent cells in tracer medium for 24 hours. […] The internal gas content was monitored using Fyrite gas analyzers (Bacharach) for CO2 and O2. […]
# (§2) Metabolite Extraction and Gas Chromatography/Mass Spectrometry (GC/MS) Analysis. […] In some ISA experiments, cells were trypsinized, counted, and pelleted prior to lipid extraction as described above. […]
# [2] = tested on: A549 cells; experiment: 13C Metabolic Flux Analysis (MFA) of A549 cells expressing IDH1-targeting shRNAs, [U-13C5]glutamine tracer
# Method: Cell Culture, Isotopic Labeling, and Hypoxia. All cell lines were cultured in Dulbecco's Modified Eagle Medium (DMEM; Mediatech) containing 10% fetal bovine serum (FBS; Invitrogen) and 100 U/ml penicillin/streptomycin (P/S; Mediatech) unless otherwise mentioned. Cell lines were obtained from ATCC unless otherwise noted. The VC3 glioma cell line was provided by Tim Lautenschlaeger (Ohio State University), MDA-MB-231 and HCT116 cell lines were provided by Ferdinando Chiaradonna (University of Milano-Bicocca), MRC5 cells were provided by Stephen Lippard (MIT), SN12C, ACHN, and 786-O cells were provided by Kevin Courtney and Lew Cantley (Harvard Medical School), and MCF10A cells were provided by Joan Brugge (Harvard Medical School), and Huh7 cells were provided by Mike Hemann (MIT). MCF10A cells were cultured in custom DMEM/F12 (Hyclone) containing 5% horse serum, 20 ng/ml EGF, 10 μg/ml insulin, 100 ng/ml cholera toxin, 0.5 mg/ml hydrocortisone, 100 U/ml penicillin/streptomycin, and labeled/unlabeled glucose and glutamine at 18 mM and 2.5 mM, respectively. PRC3, WT8, pTV, and pTR cell lines were subcloned from the 786-O cell line as previously described (42, 43). For isotopic labeling experiments, cells were cultured in 6 well plates in glucose- and glutamine-free DMEM (Sigma) containing 10% dialyzed FBS (Invitrogen), 100 U/ml P/S, naturally labeled glucose or glutamine, and the appropriate tracer, including [U-^13C5]glutamine (Isotec), [5-^13C]glutamine (C/D/N Isotopes), [1-^13C]glutamine, [U-^13C6]glucose, [1,2-^13C2]glucose (all from Cambridge Isotope Labs). Steady state labeling of organic and amino acids was accomplished by culturing subconfluent cells in tracer medium for 24 hours. Labeling of fatty acids for Isotopomer Spectral Analysis (USA) was conducted over 3-5 days of culture in an excess of tracer medium (3-4 ml/well in a 6 well plate) to prevent nutrient depletion. Hypoxic culture was conducted by feeding a custom mixture of 1% O2, 5% CO2, and 94% N2 to a standard incubator controlled at 5% CO2. HEPES (Mediatech) was added to the culture medium at 20 mM to maintain pH between normoxic and hypoxic cultures. The internal gas content was monitored using Fyrite gas analyzers (Bacharach) for CO2 and O2. O2 levels were confirmed at 1.5-2% during hypoxic culture.
# Stable cell cultures with decreased IDH1 and IDH2 expression were generated via lentiviral-mediated shRNA expression. pLKO.1 lentiviral vectors targeting IDH1 with shRNA sequences of […] TT (IDH1a; TRCN0000027298; SEQ ID NO:1) and […] TT (IDH1b; TRCN0000027289; SEQ ID NO:2), IDH2 with shRNA sequence […] TT (TRCN0000027225; SEQ ID NO:3). For controls, either non-targeting control shRNA (SHC002; Sigma) or pLKO.1 scrambled control vector (44)(Addgene) were used. pLKO.1 vector targeting ARNT with shRNA sequence […] TT (TRCN0000003819; SEQ ID NO:4) was obtained from Open Biosystems.
# HEK293T cells were co-transfected with pLKO.1 vectors and packaging plasmids to produce lentivirus. Filtered supernatants were used for infection, and cells were selected with puromycin (2 μg/ml) for at least two passages before initiating tracer and flux experiments.
# Metabolite Extraction and Gas Chromatography/Mass Spectrometry (GC/MS) Analysis. At the conclusion of culture, cells were rinsed with 1 ml ice cold PBS and quenched with 0.4 ml ice cold methanol. An equal volume of water was added, and cells were collected in tubes by scraping with a pipette. One volume of ice cold chloroform was added to each tube, and the extracts were vortexed at 4° C. for 30 minutes. Samples were centrifuged at 14,000 g for 5 minutes at room temperature. For analysis of polar metabolites, the aqueous phase was transferred to a new tube for evaporation under airflow. For ISA experiments, the non-polar fraction was collected and evaporated under airflow. In some ISA experiments, cells were trypsinized, counted, and pelleted prior to lipid extraction as described above. […]
# [3] = tested on: Hypoxia response element- (HRE-) driven reporter; experiment: Hypoxia response element (HRE)-driven reporter in HCT116 cells expressing IDH1-targeting shRNAs; conditions: normal culture, hypoxia, or 1 mM DMOG, 18 hours
# Method: Luciferase Assays. Subconfluent cells in 6 well plates were co-transfected with 1 μg of a firefly luciferase vector and 50 ng Renilla luciferase vector (pRL-TK; Promega) using Fugene 6 reagent. The ODD-Luciferase and Luciferase vectors were obtained from Addgene and based off of the pcDNA3.1 vector (49). Hypoxia responsive element-luciferase (HRE-Luc) vectors were used as described (50). Approximately 24 hours after transfection, medium was changed and cells were placed under normoxia, hypoxia, or treated with 1 mM dimethyloxalylglycine (DMOG). After 18 hours of treatment, cells were lysed and luciferase activity was determined using the Dual Luciferase Reporter Assay system (Promega) according to the manufacturer's instructions.
# [4] = tested on: 143B osteosarcoma; experiment: Reductive carboxylation by [1-13C]glutamine labeling and GC/MS in 143B cells expressing shRNAs
# Method: as §1, with “respectively.” for “respectively. PRC3, WT8, pTV, and pTR cell lines were subcloned from the 786-O cell line as previously described (42, 43). For isotopic labeling experiments, cells were cultured in 6 well plates in glucose- and glutamine-free DMEM (Sigma) containing 10% dialyzed FBS (Invitrogen), 100 U/ml P/S, naturally labeled glucose or glutamine, and the appropriate tracer, including [U-^13C5]glutamine (Isotec), [5-^13C]glutamine (C/D/N Isotopes), [1-^13C]glutamine, [U-^13C6]glucose, [1,2-^13C2]glucose (all from Cambridge Isotope Labs). Steady state labeling of organic and amino acids was accomplished by culturing subconfluent cells in tracer medium for 24 hours.”
# as §2
# [5] = tested on: MDA-MB-231 breast carcinoma; experiment: Reductive carboxylation by [1-13C]glutamine labeling and GC/MS in MDA-MB-231 cells expressing shRNAs
# Method: as §1, §2
# [6] = tested on: HCT116 colon carcinoma; experiment: Reductive carboxylation by [1-13C]glutamine labeling and GC/MS in HCT116 cells expressing shRNAs
# Method: as §1, §2
# [7] = Anaplerotic reactions, exchange flux
# [8] = Anaplerotic reactions, net flux
# [9] = Pentose Phosphate Pathway, exchange flux
# [10] = Pentose Phosphate Pathway, net flux
sequence,measurement,setting,value
"CCGGGCTGCTTGCATTAAAGGTTTACTCGAGTAAACCTTTAATGCAAGCAGCTTT TT (CCGGGCTGCTTGCATTAAAGGTTTACTCGAGTAAACCTTTAATGCAAGCAGCTTTTT; expressed or natural sequence) [IDH1a, pLKO.1 lentiviral vector shRNA targeting IDH1]",M3 mass isotopomers derived from [U-13C5]glutamine (reductive carboxylation),[1],decrease in reductive carboxylation
same,Flux Pyr.m <−> Ala,"[2]; Amino acids, exchange flux",0.00 fmol/cell*hr
same,Flux Gln −> Glu,"[2]; Amino acids, net flux",22.97 fmol/cell*hr
same,Flux Gln.x −> Gln,"[2]; Amino acids, net flux",23.47 fmol/cell*hr
same,Flux Glu −> Glu.x,"[2]; Amino acids, net flux",18.56 fmol/cell*hr
same,Flux Pyr.m −> Ala,"[2]; Amino acids, net flux",0.42 fmol/cell*hr
same,Flux Glu <−> Akg,[2]; [7],499.30 fmol/cell*hr
same,Flux Mal <−> Pyr.m + CO2,[2]; [7],0.00 fmol/cell*hr
same,Flux Oac <−> Asp,[2]; [7],0.01 fmol/cell*hr
same,Flux Glu −> Akg,[2]; [8],3.90 fmol/cell*hr
same,Flux Mal −> Pyr.m + CO2,[2]; [8],5.44 fmol/cell*hr
same,Flux Oac −> Asp,[2]; [8],0.61 fmol/cell*hr
same,Flux Pyr.m + CO2 −> Oac,[2]; [8],2.14 fmol/cell*hr
same,Flux 0.6*Asp + 0.5*Glu + 0.42*Ala + 0.5*Gln −> Biomass,"[2]; Biomass, net flux",1.01 fmol/cell*hr
same,Flux AcCoA.c −> Fatty acids,"[2]; Biomass, net flux",10.65 fmol/cell*hr
same,Flux Cit −> AcCoA.c + Oac,"[2]; Biomass, net flux",10.65 fmol/cell*hr
same,Flux P5P −> NTP,"[2]; Biomass, net flux",0.50 fmol/cell*hr
same,Flux 0*Pyr.c −> Pyr.mnt,[2]; Dilution/Mixing,1.00 fmol/cell*hr
same,Flux 0*Pyr.m −> Pyr.mnt,[2]; Dilution/Mixing,0.00 fmol/cell*hr
same,Flux 0*Suc −> Suc.mnt,[2]; Dilution/Mixing,0.24 fmol/cell*hr
same,Flux Suc.d −> Suc.mnt,[2]; Dilution/Mixing,0.76 fmol/cell*hr
same,Flux Pyr.c <−> Pyr.m,"[2]; Dilution/Mixing, exchange flux",82.77 fmol/cell*hr
same,Flux Pyr.c −> Pyr.m,"[2]; Dilution/Mixing, net flux",11.79 fmol/cell*hr
same,Flux DHAP <−> GAP,"[2]; Glycolysis, exchange flux",566.90 fmol/cell*hr
same,Flux G6P <−> F6P,"[2]; Glycolysis, exchange flux",3.2E+04 fmol/cell*hr
same,Flux GAP <−> 3PG,"[2]; Glycolysis, exchange flux",1.7E+08 fmol/cell*hr
same,Flux Pyr.c <−> Lac,"[2]; Glycolysis, exchange flux",706.50 fmol/cell*hr
same,Flux 3PG −> Pyr.c,"[2]; Glycolysis, net flux",186.40 fmol/cell*hr
same,Flux DHAP −> GAP,"[2]; Glycolysis, net flux",91.96 fmol/cell*hr
same,Flux F6P −> DHAP + GAP,"[2]; Glycolysis, net flux",91.96 fmol/cell*hr
same,Flux G6P −> F6P,"[2]; Glycolysis, net flux",86.95 fmol/cell*hr
same,Flux GAP −> 3PG,"[2]; Glycolysis, net flux",186.40 fmol/cell*hr
same,Flux Glc.x −> G6P,"[2]; Glycolysis, net flux",94.96 fmol/cell*hr
same,Flux Lac −> Lac.x,"[2]; Glycolysis, net flux",174.60 fmol/cell*hr
same,Flux Pyr.c −> Lac,"[2]; Glycolysis, net flux",174.60 fmol/cell*hr
same,Flux P5P + E4P <−> F6P + GAP,[2]; [9],1.76 fmol/cell*hr
same,Flux P5P + P5P <−> S7P + GAP,[2]; [9],3.0E+04 fmol/cell*hr
same,Flux S7P + GAP <−> F6P + E4P,[2]; [9],1.9E+05 fmol/cell*hr
same,Flux G6P −> P5P + CO2,[2]; [10],8.01 fmol/cell*hr
same,Flux P5P + E4P −> F6P + GAP,[2]; [10],2.50 fmol/cell*hr
same,Flux P5P + P5P −> S7P + GAP,[2]; [10],2.50 fmol/cell*hr
same,Flux S7P + GAP −> F6P + E4P,[2]; [10],2.50 fmol/cell*hr
same,Flux Fum <−> Mal,"[2]; TCA Cycle, exchange flux",1.1E+06 fmol/cell*hr
same,Flux Mal <−> Oac,"[2]; TCA Cycle, exchange flux",98.66 fmol/cell*hr
same,Flux Suc <−> Fum,"[2]; TCA Cycle, exchange flux",0.00 fmol/cell*hr
same,Flux Cit <−> Akg + CO2,"[2]; TCA Cycle, exchange flux (reductive IDH flux)",1.88 fmol/cell*hr
same,Flux AcCoA.m + Oac −> Cit,"[2]; TCA Cycle, net flux",14.66 fmol/cell*hr
same,Flux Akg −> Suc + CO2,"[2]; TCA Cycle, net flux",7.91 fmol/cell*hr
same,Flux Fum −> Mal,"[2]; TCA Cycle, net flux",7.91 fmol/cell*hr
same,Flux Mal −> Oac,"[2]; TCA Cycle, net flux",2.48 fmol/cell*hr
same,Flux Pyr.m −> AcCoA.m + CO2,"[2]; TCA Cycle, net flux",14.66 fmol/cell*hr
same,Flux Suc −> Fum,"[2]; TCA Cycle, net flux",7.91 fmol/cell*hr
same,Flux Cit −> Akg + CO2,"[2]; TCA Cycle, net flux (IDH)",4.01 fmol/cell*hr
same,HRE-driven reporter levels (hypoxia signaling),[3],does not increase hypoxia signaling and stabilization
same,reductive carboxylation flux,[4],reduces reductive carboxylation flux
same,reductive carboxylation flux (M1 label from [1-13C]glutamine),[5],reduces reductive carboxylation flux
same,reductive carboxylation flux (M1 label from [1-13C]glutamine),[6],reduces reductive carboxylation flux
